Tests used:
Coxsackievirus B3 = assay: Antiviral activity against Coxsackievirus B3 Nancy infected in African green monkey Vero cells assessed as inhibition of virus-induced cytopathic effect; type: functional; details: Enterovirus B
[1] = Cytotoxicity against African green monkey Vero cells assessed as cytopathic effect after 48 hrs; type: cell-based; details: chlorocebus sabaeus, read-out: TC50
[2] = Selectivity index, ratio of TC50 for African green monkey Vero cells to IC50 for Coxsackievirus B3 Nancy infected in African green monkey Vero cells; type: toxicity; details: read-out: Selectivity Index
[3] = Acute toxicity in po dosed Kunming mouse measured for 7 days; type: organism-based; details: in vivo
[4] = Antiviral activity against Coxsackievirus B6 Schmitt infected in African green monkey Vero cells assessed as inhibition of virus-induced cytopathic effect; type: functional, Coxsackievirus B6 (strain Schmitt); details: Enterovirus B
Coxsackievirus B4 = assay: Antiviral activity against Coxsackievirus B4 JVB infected in African green monkey Vero cells assessed as inhibition of virus-induced cytopathic effect; type: functional; details: Enterovirus B
Coxsackievirus B1 = assay: Antiviral activity against Coxsackievirus B1 Conn 5 infected in African green monkey Vero cells assessed as inhibition of virus-induced cytopathic effect; type: functional; details: Enterovirus B, Conn 5, Vero
[5] = Antiviral activity against Coxsackievirus B2 Ohio-1 infected in African green monkey Vero cells assessed as inhibition of virus-induced cytopathic effect; type: functional, Coxsackievirus B2 (strain Ohio-1); details: Enterovirus B
Coxsackievirus B5 = assay: Antiviral activity against Coxsackievirus B5 Faulkner infected in African green monkey Vero cells assessed as inhibition of virus-induced cytopathic effect; type: functional; details: Enterovirus B
[6] = Selectivity index, ratio of TC50 for African green monkey Vero cells to IC50 for Coxsackievirus B1 Conn 5 infected in African green monkey Vero cells; type: toxicity; details: read-out: Selectivity Index
[7] = Selectivity index, ratio of TC50 for African green monkey Vero cells to IC50 for Coxsackievirus B5 Faulkner infected in African green monkey Vero cells; type: toxicity; details: read-out: Selectivity Index
[8] = Selectivity index, ratio of TC50 for African green monkey Vero cells to IC50 for Coxsackievirus B2 Ohio-1 infected in African green monkey Vero cells; type: toxicity; details: read-out: Selectivity Index
[9] = Selectivity index, ratio of TC50 for African green monkey Vero cells to IC50 for Coxsackievirus B4 JVB infected in African green monkey Vero cells; type: toxicity; details: read-out: Selectivity Index
[10] = Tmax in Sprague-Dawley rat at 25 mg/kg, po; type: ADME, organism-based; details: in vivo
[11] = MRT in Sprague-Dawley rat at 25 mg/kg, po; type: ADME, organism-based; details: in vivo
[12] = Half life in Sprague-Dawley rat at 25 mg/kg, po; type: ADME, organism-based; details: in vivo
[13] = AUC (0 to infinity) in Sprague-Dawley rat at 25 mg/kg, po; type: ADME, organism-based; design: dose 25 mg/kg, route oral, time infinity; details: in vivo
[14] = Cmax in Sprague-Dawley rat at 25 mg/kg, po; type: ADME, organism-based; design: dose 25 mg/kg, route oral; details: in vivo
[15] = AUC (0 to t) in Sprague-Dawley rat at 25 mg/kg, po; type: ADME, organism-based; details: in vivo
[16] = Selectivity index, ratio of TC50 for African green monkey Vero cells to IC50 for Coxsackievirus B6 Schmitt infected in African green monkey Vero cells; type: toxicity; details: read-out: Selectivity Index

SMILES	IC50 (Coxsackievirus B3)	CC50 at 48 h [1]	selectivity ratio [2]	further results
O=S(=O)(c1ccc(C(F)(F)F)cc1)N1C[C@@H]2CCCN3CCC[C@@H]([C@H]23)[C@H]1CCF	13 µM	358 µM	27.6	
CCCC[C@@H]1[C@H]2CCCN3CCC[C@@H](CN1S(=O)(=O)c1ccccc1[N+](=O)[O-])[C@@H]23	2.47 µM	228 µM	92.5	
N#Cc1cccc(S(=O)(=O)N2C[C@@H]3CCCN4CCC[C@@H]([C@H]34)[C@H]2CCCCCl)c1	8.39 µM	204 µM	24.3	
O=S(=O)(c1ccc(C(F)(F)F)cc1)N1C[C@@H]2CCCN3CCC[C@@H]([C@H]23)[C@H]1CCCCF	1.19 µM	144 µM	121	
NC(=O)c1cccc(S(=O)(=O)N2C[C@@H]3CCCN4CCC[C@@H]([C@H]34)[C@H]2CCO)c1	9.25 µM	> 491 µM	> 53.1	
N#Cc1ccccc1S(=O)(=O)N1C[C@@H]2CCCN3CCC[C@@H]([C@H]23)[C@H]1CCCCF	17.7 µM	230 µM	13	LD50 at 168 h [3]: 560 mg/kg
CCCC[C@@H]1[C@H]2CCCN3CCC[C@@H](CN1S(=O)(=O)c1ccc(OC)cc1)[C@@H]23	5.8 µM	96.2 µM	16.6	
CCCC[C@@H]1[C@H]2CCCN3CCC[C@@H](CN1S(=O)(=O)c1ccccc1C(=O)OC)[C@@H]23	7.24 µM	320 µM	44.1	
N#Cc1cccc(S(=O)(=O)N2C[C@@H]3CCCN4CCC[C@@H]([C@H]34)[C@H]2CCCl)c1	3.23 µM	313 µM	97	LD50 at 168 h [3]: 348 mg/kg
CCCC[C@@H]1[C@H]2CCCN3CCC[C@@H](CN1S(=O)(=O)c1ccc(C(=O)OC)cc1)[C@@H]23	14.2 µM	367 µM	25.1	
N#Cc1cccc(S(=O)(=O)N2C[C@@H]3CCCN4CCC[C@@H]([C@H]34)[C@H]2CCF)c1	74.8 µM	> 512 µM	> 6.84	
NC(=O)c1ncn([C@@H]2O[C@H](CO)[C@@H](O)[C@H]2O)n1 [RIBAVIRIN]	379 to 695 µM	6360 to 8200 µM	11.8 to 16.8	IC50 [4]: 2090 µM; IC50 (Coxsackievirus B4): > 500 µM; IC50 (Coxsackievirus B1): 2380 µM; IC50 [5]: > 500 µM; IC50 (Coxsackievirus B5): 3320 µM
CCCC[C@@H]1[C@H]2CCCN3CCC[C@@H](CN1S(=O)(=O)c1ccc(NC(C)=O)cc1)[C@@H]23	2.47 µM	96.2 µM	38.9	
CCCC[C@@H]1[C@H]2CCCN3CCC[C@@H](CN1S(=O)(=O)c1ccccc1C#N)[C@@H]23	1.04 µM	116 to 200 µM	111	selectivity ratio [6]: > 132; selectivity ratio [7]: > 290; IC50 [4]: 2.06 µM; IC50 (Coxsackievirus B4): 5.14 µM; selectivity ratio [8]: > 121; selectivity ratio [9]: > 38.9; Tmax [10]: 1.33 h; IC50 (Coxsackievirus B1): 1.52 µM; IC50 [5]: 1.65 µM; LD50 at 168 h [3]: > 500 mg/kg; MRT [11]: 4.05 h; half-life [12]: 2.48 h; AUC(0-inf) [13]: 31.8 µM·h; Cmax [14]: 3.07 µM; IC50 (Coxsackievirus B5): 0.69 µM; AUC(0-t) [15]: 30.9 µM·h; selectivity ratio [16]: 75.3
CCCC[C@@H]1[C@H]2CCCN3CCC[C@@H](CN1S(=O)(=O)c1cccc(C#N)c1)[C@@H]23	1.14 µM	96.2 µM	84.3	
CC(=O)c1ccc(S(=O)(=O)N2C[C@@H]3CCCN4CCC[C@@H]([C@H]34)[C@H]2CCCl)cc1	12.2 µM	251 µM	20.5	
N#Cc1ccccc1S(=O)(=O)N1C[C@@H]2CCCN3CCC[C@@H]([C@H]23)[C@H]1CCCl	1.85 µM	> 452 µM	> 244	LD50 at 168 h [3]: 348 mg/kg
NC(=O)c1ccc(S(=O)(=O)N2C[C@@H]3CCCN4CCC[C@@H]([C@H]34)[C@H]2CCO)cc1	16 µM	> 491 µM	> 30.7	
O=S(=O)(c1ccccc1/C=N/O)N1C[C@@H]2CCCN3CCC[C@@H]([C@H]23)[C@H]1CCO	0.87 µM	> 491 µM	> 565	LD50 at 168 h [3]: < 500 mg/kg
N#Cc1ccc(S(=O)(=O)N2C[C@@H]3CCCN4CCC[C@@H]([C@H]34)[C@H]2CCCCF)cc1	7.51 µM	276 µM	36.7	LD50 at 168 h [3]: 353 mg/kg
N#Cc1cccc(S(=O)(=O)N2C[C@@H]3CCCN4CCC[C@@H]([C@H]34)[C@H]2CCCCF)c1	4.49 µM	276 µM	61.4	LD50 at 168 h [3]: 654 mg/kg
O=S(=O)(c1ccccc1C(F)(F)F)N1C[C@@H]2CCCN3CCC[C@@H]([C@H]23)[C@H]1CCCCF	16.8 µM	229 µM	13.6	
N#Cc1ccccc1S(=O)(=O)N1C[C@@H]2CCCN3CCC[C@@H]([C@H]23)[C@H]1CCCCCl	3.99 µM	204 µM	51.2	LD50 at 168 h [3]: 348 mg/kg
O=S(=O)(c1cccc(C(F)(F)F)c1)N1C[C@@H]2CCCN3CCC[C@@H]([C@H]23)[C@H]1CCCCF	0.82 µM	100 µM	122	
C1CCN2C[C@@H]3CCCN4CCC[C@@H]([C@H]34)[C@H]2C1	57 µM	652 µM	11.4	
CCCC[C@@H]1[C@H]2CCCN3CCC[C@@H](CN1S(=O)(=O)c1cccc(C(=O)OC)c1)[C@@H]23	1.45 µM	73.7 µM	50.9	
CCCC[C@@H]1[C@H]2CCCN3CCC[C@@H](CN1S(=O)(=O)c1ccc(N)cc1)[C@@H]23	23 µM	82.9 µM	3.6	
